Where two headings read alike, the source gives them in different places.
Columns and labels:
[1] = tested on: LC3-I to LC3-II conversion and p62 degradation in MTB H37Rv infected RAW cells; assay: Western blot of autophagy markers, MTB infected cells; assay type: cell-based, Murine; conditions: 10μM and 20μM, MTB H37Rv infected RAW macrophages
Description: (§1) Cells were harvested, washed thrice with 1X cold PBS and lysed in RIPA lysis buffer containing 1% protease inhibitor cocktail (Sigma) and 3% phosphatase inhibitor cocktail (Sigma). Total protein concentration in the cell lysate was estimated by Bradford reagent (Sigma). Samples containing equal amounts of protein (80μg/well) were run on 10% SDS PAGE followed by electro transfer on nitrocellulose membrane. Membranes were blocked with blocking buffer (5% w/v skimmed milk in 1X TBST) for 30 minutes followed by incubation with respective antibodies for 4 h at room temperature. Further, membranes were washed thrice with 1xTBST for 15 minutes and incubated appropriate secondary antibody HRP conjugate for 2 h and blots were developed with Enhanced Chemiluminescence kit (Roche) according to manufacturer’s protocol. Densitometric analysis was performed using ImageJ software.

[2] = tested on: LC3-I to LC3-II conversion and p62 degradation in RAW 264.7 cells; assay: Western blot of autophagy markers, uninfected cells; assay type: cell-based, Murine; conditions: 10μM and 20μM, 24h
Description: as §1

[3] = tested on: MDR clinical isolate of MTB, strain-1; assay type: cell-based, Mycobacterium tuberculosis; conditions: 10μM and 20μM, 48 and 72h
MTB H37Rv = assay: Macrophage infection and CFU assay (intracellular survival in RAW 264.7); assay type: cell-based, Mycobacterium tuberculosis; conditions: for Percent survival of MTB (percentage of control): adjunctive action experiment, dose not given
[4] = Oral pharmacokinetics study; conditions: 50 mg/kg
[5] = tested on: Caspase-3, cleaved caspase-3, cleaved PARP, Bax and Bcl-2 in RAW cells with or without MTB infection; assay: Western blot of pro and anti-apoptotic proteins; assay type: cell-based, Murine; conditions: 10μM and 20μM
Description: as §1

[6] = tested on: GFP-MTB H37Rv infected RAW 264.7 cells; assay: Confocal microscopy of phagosome lysosome fusion; assay type: cell-based, Murine; conditions: 10μM and 20μM, 48h, MOI 5
Description: RAW 264.7 cells (5 x 10^5 cells/ml) were seeded on sterile coverslips in 6-well plates and incubated at 37°C for overnight in CO2 incubator. Next day cells were infected with GFP-MTB H37Rv at MOI 5 and treated with CMN for 48h. Lysotracker Red (Thermo) was added to each well at concentration of 70nM for 3h prior to the end of incubation. Coverslips were washed twice with sterile 1XPBS and fixed with 4% para formaldehyde. Cover slips were mounted on glass slides using Prolong® Gold Antifade (Thermo) mounting reagent containing DAPI and images were acquired on Zeiss LSM 510 Meta confocal microscope (Carl Zeiss) equipped with 63X oil immersion lens. Optical sections with Z-stack were taken to evaluate colocalization and images were deconvolved.

[7] = tested on: MDR clinical isolate of MTB, strain-2; assay type: cell-based, Mycobacterium tuberculosis; conditions: 10μM and 20μM, 48 and 72h

COc1cc(C=CC(=O)CC(=O)C=Cc2ccc(O)c(OC)c2)ccc1O [CMN, 1,7-bis (4-hydroxy-3-methoxy-phenyl) hepta-1,6-diene-3,5-dione]
Autophagy induction (LC3-I to LC3-II conversion and p62 degradation) [1]: autophagy induction in MTB infected cells after CMN treatment | Conversion of LC3-I to LC3-II (immunoblotting) [2]: conversion of LC3-I to II at 10μM and 20μM dose | Degradation of p62 (immunoblotting) [2]: p62 degradation at 10μM and 20μM dose | Percent survival [3]: inhibited the percent survival | Percent survival ([3]; treatment with 3-MA): increase in the percent survival that was comparable to untreated controls | Percent survival (percentage of control) (MTB H37Rv; 10μM, 48h, in presence of autophagy inhibitor 3-MA): 87.1 ± 6.6% | Percent survival (percentage of control) (MTB H37Rv; 10μM, 48h post infection, RAW 264.7, MOI 5): 57 ± 4.6% | Percent survival (percentage of control) (MTB H37Rv; 10μM, 72h, in presence of autophagy inhibitor 3-MA): 80.1 ± 6.8% | Percent survival (percentage of control) (MTB H37Rv; 10μM, 72h post infection, RAW 264.7, MOI 5): 49.1 ± 7.8% | Percent survival (percentage of control) (MTB H37Rv; 20μM, 48h, RAW 264.7, MOI 5): 47.7 ± 4.1% | Percent survival (percentage of control) (MTB H37Rv; 20μM, 48h, in presence of autophagy inhibitor 3-MA): 87.1 ± 4.6% | Percent survival (percentage of control) (MTB H37Rv; 20μM, 72h, RAW 264.7, MOI 5): 45.6 ± 6.1% | Percent survival (percentage of control) (MTB H37Rv; 20μM, 72h, in presence of autophagy inhibitor 3-MA): 85.7 ± 8.8% | Percent survival of MTB (percentage of control) (MTB H37Rv; 48h of treatment): 41.6 ± 3.5% | Percent survival of MTB (percentage of control) (MTB H37Rv; 72h of treatment): 34.8 ± 3.0% | AUC(0-inf) ([4]; BALB/c, mouse, in vivo, po): 170 ng·h/mL | AUC(0-t) ([4]; BALB/c, mouse, in vivo, po): 119 ng·h/mL | Cmax ([4]; BALB/c, mouse, in vivo, po): 45.2 ng/mL | MRT inf ([4]; BALB/c, mouse, in vivo, po): 5.07 h | Tmax ([4]; BALB/c, mouse, in vivo, po): 0.25 h | half-life ([4]; BALB/c, mouse, in vivo, po): 3.66 h | k el ([4]; BALB/c, mouse, in vivo, po): 5.28e-05 s⁻¹ | Time up to which CMN was detected in plasma after administration ([4]; oral, BALB/c mice): up to 8 h | Expression of anti-apoptotic protein Bcl-2 ([5]; 24h, RAW cells with or without MTB infection): downregulation | Expression of pro apoptotic proteins cleaved caspase-3, cleaved PARP and Bax ([5]; 24h post treatment, compared to untreated cells): upregulated | Phagosome lysosome fusion (co localization of GFP and Lysotracker Red) [6]: formation of yellow compartment in both the CMN treatment groups after 48h | Percent survival [7]: inhibited the percent survival | Percent survival ([7]; treatment with 3-MA): increase in the percent survival that was comparable to untreated controls

NNC(=O)c1ccncc1 [INH, isoniazid]
Percent survival of MTB (percentage of control) (MTB H37Rv; 48h of treatment): 35.1 ± 2.8% | Percent survival of MTB (percentage of control) (MTB H37Rv; 72h of treatment): 22.9 ± 4.5%

— paper PMC10424441, “Macrophage targeted polymeric curcumin nanoparticles limit intracellular survival of Mycobacterium tuberculosis through induction of autophagy and augment anti-TB activity of isoniazid in RAW 264.7 macrophages” (Frontiers in Immunology, 2023)
